Here are results for eleven compounds from US20100190826A1, “BENZIMIDAZOLE DERIVATIVE” (priority 2007, published 2010).

pIC50: −log10 of the molar value.

For one experiment, the target named is T1, human 17βHSD type 3 (Homo sapiens, UniProt P37058).
T1 construct: A full-length cDNA encoding human 17βHSD type 3; made in house; host or cells: human fetus kidney-derived 293 cells (transient, 24 h); supernatant of disrupted cells
T1 sequence (P37058 1-310): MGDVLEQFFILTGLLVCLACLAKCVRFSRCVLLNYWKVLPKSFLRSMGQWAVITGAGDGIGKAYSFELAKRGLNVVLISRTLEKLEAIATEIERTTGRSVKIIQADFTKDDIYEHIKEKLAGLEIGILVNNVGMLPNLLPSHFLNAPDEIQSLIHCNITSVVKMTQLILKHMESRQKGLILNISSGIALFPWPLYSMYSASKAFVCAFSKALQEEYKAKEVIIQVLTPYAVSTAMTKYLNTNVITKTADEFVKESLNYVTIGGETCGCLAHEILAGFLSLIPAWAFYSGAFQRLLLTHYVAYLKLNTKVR
Briefly: Measurement of enzyme activity of human 17βHSD type 3. Format: biochemical. The following applies: enzyme source: supernatant of transformed 293 cells; read-out: Type3 IC50. From the text: (§1) An excellent selective inhibitory activity against human 17βHSD type 5 of the compounds of the present invention was confirmed by the test method described below. In this connection, the test may be carried out by referring to the details of test procedure described in Maniatis, T. et al., Molecular Cloning—A Laboratory Manual Cold Spring Harbor Laboratory, NY (1982) and the like. In addition, genes encoding human 17βHSD type5 and type3 described in Sections 1 and 2 below, and human 17βHSD type 5 and type 3 may be obtained by the method described in Molecular Endocrinology, 1997, 11(13), 1971-1984.
2. Isolation of Gene Encoding Human 17βHSD Type 3 and Enzyme Purification
A full-length cDNA encoding human 17βHSD type 3 used in the pharmacological test of the present invention was obtained by the PCR method using a cDNA derived from human testis as a template. The nucleotide sequence of the obtained cDNA was analyzed by the dideoxyterminator method, and the clone matched with the known human 17βHSD type 3 sequence (GenBank accession No. BCO34281) was selected. Subsequently, human fetus kidney-derived cell line, 293 cells, were transformed with a plasmid containing the cDNA, and the cells were collected 24 hours later. The collected cells were then disrupted in a phosphate buffer solution containing 5% glycerol (500 μL per 100 mm-dish of a phosphate buffer solution (pH 7.4, 200 mM) containing 5% glycerol) and centrifuged (16000 rpm, 5 min, 4° C.), and the supernatant was used as an enzyme source.
(§2) 3. Measurement of Enzyme Activities of Human 17βHSD Type 5 and Type 3
(§3) Enzyme activity was measured referring to Trevor M. Penning, et al., Biochem. J., 351, 67-77, (2000). Specifically, using a 100 mM potassium phosphate buffer (pH 6.0), (1) the enzyme purified in Section 1 at a final concentration of 10 μg/mL, (2) androstenedione at a final concentration of 300 nM, (3) NADPH at a final concentration of 200 μM, and (4) a test substance, were mixed to react at room temperature for 2 hours, and then the amount of testosterone produced was measured using DELFIA (registered trademark) Testosterone Reagents R050-201 (manufactured by PerkinElmer). The measurement was performed in accordance with the attached instructions. The amount of reduction of testosterone production in the presence of the compound was obtained as a relative value with respect to the amount of testosterone in the absence of the enzyme set at 0% and the amount of testosterone produced in the absence of the compound set at 100%. Then, IC50 values were calculated by the Logistic regression method.

The target of another experiment is T2, human 17βHSD type 5 (Homo sapiens, UniProt P42330).
T2 construct: A full-length cDNA encoding human 17βHSD type 5; GST (cleaved yes); made in house; host or cells: Escherichia coli BL21
T2 sequence (P42330 1-323): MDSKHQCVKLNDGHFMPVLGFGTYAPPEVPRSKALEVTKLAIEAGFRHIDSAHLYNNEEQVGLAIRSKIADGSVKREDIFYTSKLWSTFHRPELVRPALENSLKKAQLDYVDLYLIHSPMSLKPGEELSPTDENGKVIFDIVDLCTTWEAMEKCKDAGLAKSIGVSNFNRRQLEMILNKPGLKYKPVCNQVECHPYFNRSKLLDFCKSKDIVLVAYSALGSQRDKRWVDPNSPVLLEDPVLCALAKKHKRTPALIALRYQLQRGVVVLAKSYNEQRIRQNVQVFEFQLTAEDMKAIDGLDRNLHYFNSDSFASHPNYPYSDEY
The experiment is described as follows: Measurement of enzyme activity of human 17βHSD type 5 (testosterone production from androstenedione). In kind it is biochemical. Conditions: purified enzyme 10 μg/mL, androstenedione 300 nM, NADPH 200 μM, pH 6.0, room temperature 2 hours; read-out: Type5 IC50.
Description: as §1
1. Isolation of Gene Encoding Human 17βHSD Type 5 and Enzyme Purification
A full-length cDNA encoding human 17βHSD type 5 used in the pharmacological test of the present invention was obtained by the PCR method using a cDNA derived from a human lung cancer-derived cell line, A549 cells as a template. The nucleotide sequence of the obtained cDNA was analyzed by the dideoxyterminator method, and the clone matched with the known human 17βHSD type 5 sequence (GenBank accession No. NM_003739) was selected. Escherichia coli BL21 was transformed with a plasmid containing the cDNA and cultured on a large scale. The proteins were purified by using GSTrapFF column (manufactured by Amersham) and PreScissionProtease (manufactured by Amersham). The purification method was carried out in accordance with the instructions attached to the GSTrapFF column.
as §2, §3

Experiment [1] has as its target T3, human 17βHSD type 5-expressing LNCaP cells (Homo sapiens, UniProt P42330).
T3 sequence (P42330 1-323): T2 sequence (P42330 1-323)
Briefly: Cell growth inhibitory activity using LNCaP cells expressing human 17βHSD type 5 (androstenedione-stimulated, CellTiter-Glo). Format: cell-based. Conditions: androstenedione 10 nM, culturing for 7 days; read-out: LNCaP-17β5 IC50. As for the experimental part: Subsequently, LNCaP cells expressing human 17βHSD type 5 were constructed from a human prostate cancer-derived cell line, LNCaP cells, and a cell growth inhibitory activity of the compound of the present invention was evaluated.
4. Construction of LNCaP Cells Expressing Human 17βHSD Type 5
A full-length cDNA encoding human 17βHSD type 5 used in the pharmacological test of the present invention was obtained by the PCR method using a cDNA derived from a human lung cancer-derived cell line, A549 cells, as a template. The nucleotide sequence of the obtained cDNA was analyzed by the dideoxyterminator method, and the clone matched with the known human 17βHSD type 5 sequence (GenBank accession No. NM_003739) was selected. The human prostate cancer-derived cell line LNCaP cells were transformed with a plasmid containing the cDNA and the cell line showing stable expression was obtained.
5. Measurement of Cell Growth Capability Using LNCaP Cells Expressing Human 17βHSD Type 5
9000 cells/well of the transformed cells obtained in Section 4 above were seeded in a 96-well plate and cultured overnight. Then, androstenedione, in conjunction with a test compound, was added thereto at a final concentration of 10 nM, followed by culturing for 7 days. After the culturing, number of the cells was counted using a CellTiter-Glo (registered trademark) Luminescent Cell Viability Assay (Promega). The CellTiter-Glo (registered trademark) Luminescent Cell Viability Assay is a reagent that measures the number of the cells by monitoring an intracellular ATP level from the luminescence intensity by luciferase. The experimental manipulation was carried out in accordance with the attached instructions. The cell growth inhibitory activity in the presence of a test compound was calculated as a relative value with respect to the number of the cells in the absence of androstenedione set at proliferation of 0%, and the number of the cells in the presence of androstenedione and in the absence of the test compound set at proliferation of 100%. Then, IC50 values were calculated by the Logistic regression method.

The subject of the next experiment is 5α-reductase. The following applies: patients with BPH, after administration of finasteride; cited from earlier work.

Regarding `N#Cc1ccc2c(ccn2-c2cccc(C(=O)O)c2)c1` [Example 1, 3-(5-cyano-1H-indol-1-yl) benzoic acid], the negative-log IC50 (pIC50) on human 17βHSD type 3 is below 5.00; at human 17βHSD type 5 it was 6.70. Further, the GI50 in experiment [1] came to 6680 nM.

As to `O=C(O)c1cccc(-n2cc(-c3ccccc3)c3cc(C(F)(F)F)ccc32)c1` [Example 6], the pIC50 at human 17βHSD type 3 was 5.74; on human 17βHSD type 5 it was 7.30. Also, the GI50 in experiment [1] was found to be 46 nM.

In the case of `O=C(O)c1cccc(-n2c(-c3ccccc3)nc3cc(C(F)(F)F)ccc32)c1` [Example 17], the pIC50 is 5.19 at human 17βHSD type 3 and 6.74 on human 17βHSD type 5. Besides, in experiment [1], the GI50 was determined as 66 nM.

With `O=C(O)c1cccc(-n2cnc3cc(C(F)(F)F)ccc32)c1` [Example 20], the pIC50 on human 17βHSD type 3 was 5.14; on human 17βHSD type 5, 6.92. The GI50 in experiment [1] stood at 101 nM.

On to `Cc1nc2cc(C(F)(F)F)ccc2n1-c1cccc(C(=O)O)c1` [Example 21], for which the results for the pIC50 on human 17βHSD type 3 and on human 17βHSD type 5 were 5.33 and 6.96, respectively. For the same compound, the GI50 in experiment [1] amounted to 102 nM.

In the case of `COc1nc2cc(C(F)(F)F)ccc2n1-c1cccc(C(=O)O)c1` [Example 32], the pIC50 at human 17βHSD type 5 is 6.92. Also, the GI50 in experiment [1] worked out at 46 nM.

In the case of `O=C(O)c1cccc(-n2c(Cc3ccccc3)nc3cc(C(F)(F)F)ccc32)c1` [Example 38], the negative logarithm of the IC50 (pIC50) was below 5.00 at human 17βHSD type 3 and 7.02 at human 17βHSD type 5. For the same compound, in experiment [1], the GI50 worked out at 45 nM.

On to `O=C(O)c1cccc(-n2c(COc3ccccc3)nc3cc(C(F)(F)F)ccc32)c1` [Example 44], for which the negative logarithm of the IC50 (pIC50) on human 17βHSD type 5 was 7.40. Also, the GI50 in experiment [1] turned out to be 34 nM.

For `COCCc1cn(-c2cccc(C(=O)O)c2)c2ccc(C(F)(F)F)cc12` [Example 47, 3-[3-(2-methoxyethyl)-5-(trifluoromethyl)-1H-indol-1-yl]benzoic acid], the figures for the pIC50 at human 17βHSD type 3 and on human 17βHSD type 5 were 5.60 and 6.74, respectively. Also, in experiment [1], the GI50 came out at 92 nM.

Regarding `O=C(O)c1cccc(-n2c(C(F)(F)F)nc3cc(C(F)(F)F)ccc32)c1` [Example 54, 3-[2,5-bis(trifluoromethyl)-1H-benzimidazol-1-yl]benzoic acid], the values for the negative logarithm of the IC50 (pIC50) on human 17βHSD type 3 and at human 17βHSD type 5 were 5.49 and 7.15, respectively. Besides, in experiment [1], the GI50 is 141 nM.

On to `CC(C)(C)NC(=O)[C@H]1CC[C@H]2[C@@H]3CC[C@H]4NC(=O)C=C[C@]4(C)[C@H]3CC[C@]12C` [finasteride], for which, in the experiment with 5α-reductase, the “concentration of DHT in the prostate relative to the concentration before the administration” value was “about 20%” and the “increase of the concentration of testosterone in the prostate” value is recorded as 4 fold.
